Measurements from PubChem BioAssay (NCI).
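Dose response: 5 concentrations. Exposure: 48 h. Format: 96-well plates. Endpoint: linear interpolation; highest concentration if not reached. TGI marks complete inhibition of growth.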

What was measured:
Experiment in all cases: inhibition of tumour cell growth, NCI panel, 48 h
786-0 renal = system: 786-0 renal
A498 renal = system: A498 renal
A549 NSCLC = system: A549 NSCLC
ACHN renal = system: ACHN renal
BT-549 breast = system: BT-549 breast
CAKI-1 renal = system: CAKI-1 renal
CCRF-CEM leukemia = system: CCRF-CEM leukemia
COLO 205 colon = system: COLO 205 colon
DU-145 prostate = system: DU-145 prostate
EKVX NSCLC = system: EKVX NSCLC
HCC-2998 colon = system: HCC-2998 colon
HCT-116 colon = system: HCT-116 colon
HCT-15 colon = system: HCT-15 colon
HL-60(TB) leukemia = system: HL-60(TB) leukemia
HOP-62 NSCLC = system: HOP-62 NSCLC
HS 578T breast = system: HS 578T breast
HT29 colon = system: HT29 colon
IGROV1 ovarian = system: IGROV1 ovarian
K-562 leukemia = system: K-562 leukemia
KM12 colon = system: KM12 colon
LOX IMVI melanoma = system: LOX IMVI melanoma
M14 melanoma = system: M14 melanoma
MALME-3M melanoma = system: MALME-3M melanoma
MCF7 breast = system: MCF7 breast
MDA-MB-231 breast = system: MDA-MB-231 breast
MDA-MB-435 = system: MDA-MB-435
MDA-N = system: MDA-N
MOLT-4 leukemia = system: MOLT-4 leukemia
NCI-H226 lung = system: NCI-H226 lung
NCI-H23 lung = system: NCI-H23 lung
NCI-H460 lung = system: NCI-H460 lung
NCI/ADR-RES ovarian = system: NCI/ADR-RES ovarian
OVCAR-3 ovarian = system: OVCAR-3 ovarian
OVCAR-4 ovarian = system: OVCAR-4 ovarian
OVCAR-5 ovarian = system: OVCAR-5 ovarian
OVCAR-8 ovarian = system: OVCAR-8 ovarian
PC-3 prostate = system: PC-3 prostate
RPMI-8226 leukemia = system: RPMI-8226 leukemia
RXF 393 renal = system: RXF 393 renal
SF-268 CNS = system: SF-268 CNS
SF-295 CNS = system: SF-295 CNS
SF-539 CNS = system: SF-539 CNS
SK-MEL-28 melanoma = system: SK-MEL-28 melanoma
SK-MEL-5 melanoma = system: SK-MEL-5 melanoma
SK-OV-3 ovarian = system: SK-OV-3 ovarian
SN12C renal = system: SN12C renal
SNB-19 CNS = system: SNB-19 CNS
SNB-75 CNS = system: SNB-75 CNS
SR leukemia = system: SR leukemia
SW-620 colon = system: SW-620 colon
TK-10 renal = system: TK-10 renal
U251 CNS = system: U251 CNS
UACC-257 melanoma = system: UACC-257 melanoma
UACC-62 melanoma = system: UACC-62 melanoma
UO-31 renal = system: UO-31 renal
HOP-92 NSCLC = system: HOP-92 NSCLC
NCI-H522 lung = system: NCI-H522 lung
SK-MEL-2 melanoma = system: SK-MEL-2 melanoma
T-47D breast = system: T-47D breast

CC1(C)CC(=O)C2=C(C1)NC1=C(C2)C(=O)CC(C)(C)C1 was tested, and the TGI (786-0 renal) was > 100 µM, the TGI (A498 renal) was > 100 µM and the TGI (A549 NSCLC) was > 100 µM. The TGI (ACHN renal) was > 100 µM, the TGI (BT-549 breast) was > 100 µM and the TGI (CAKI-1 renal) was > 100 µM. For the same compound, the TGI (CCRF-CEM leukemia) was > 100 µM, the TGI (COLO 205 colon) was > 100 µM and the TGI (DU-145 prostate) was > 100 µM. The TGI (EKVX NSCLC) was > 100 µM, the TGI (HCC-2998 colon) was > 100 µM and the TGI (HCT-116 colon) was > 100 µM. For the same compound, the TGI (HCT-15 colon) was > 100 µM, the TGI (HL-60(TB) leukemia) was > 100 µM and the TGI (HOP-62 NSCLC) was > 100 µM. For the same compound, the TGI (HS 578T breast) was > 100 µM, the TGI (HT29 colon) was > 100 µM and the TGI (IGROV1 ovarian) was > 100 µM. The TGI (K-562 leukemia) was > 100 µM, the TGI (KM12 colon) was > 100 µM and the TGI (LOX IMVI melanoma) was > 100 µM. For the same compound, the TGI (M14 melanoma) was > 100 µM, the TGI (MALME-3M melanoma) was > 100 µM and the TGI (MCF7 breast) was > 100 µM. For the same compound, the TGI (MDA-MB-231 breast) was > 100 µM, the TGI (MDA-MB-435) was > 100 µM and the TGI (MDA-N) was > 100 µM. For the same compound, the TGI (MOLT-4 leukemia) was > 100 µM, the TGI (NCI-H226 lung) was > 100 µM and the TGI (NCI-H23 lung) was > 100 µM. The TGI (NCI-H460 lung) was > 100 µM, the TGI (NCI/ADR-RES ovarian) was > 100 µM and the TGI (OVCAR-3 ovarian) was > 100 µM. The TGI (OVCAR-4 ovarian) was > 100 µM, the TGI (OVCAR-5 ovarian) was > 100 µM and the TGI (OVCAR-8 ovarian) was > 100 µM. The TGI (PC-3 prostate) was > 100 µM, the TGI (RPMI-8226 leukemia) was > 100 µM and the TGI (RXF 393 renal) was > 100 µM. The TGI (SF-268 CNS) was > 100 µM, the TGI (SF-295 CNS) was > 100 µM and the TGI (SF-539 CNS) was > 100 µM. For the same compound, the TGI (SK-MEL-28 melanoma) was > 100 µM, the TGI (SK-MEL-5 melanoma) was > 100 µM and the TGI (SK-OV-3 ovarian) was > 100 µM. For the same compound, the TGI (SN12C renal) was > 100 µM, the TGI (SNB-19 CNS) was > 100 µM and the TGI (SNB-75 CNS) was > 100 µM. For the same compound, the TGI (SR leukemia) was > 100 µM, the TGI (SW-620 colon) was > 100 µM and the TGI (TK-10 renal) was > 100 µM. For the same compound, the TGI (U251 CNS) was > 100 µM, the TGI (UACC-257 melanoma) was > 100 µM and the TGI (UACC-62 melanoma) was > 100 µM. For the same compound, the TGI (UO-31 renal) was > 100 µM.

Work on C=C(C)[C@@]1(O)CCCC[C@@H]1CC(Sc1ccccc1)Sc1ccccc1 yielded a TGI (786-0 renal) of 39.9 µM, a TGI (A498 renal) of 68.4 µM and a TGI (A549 NSCLC) of 34.4 µM. The TGI (ACHN renal) was > 100 µM, the TGI (CAKI-1 renal) was 28.8 µM and the TGI (CCRF-CEM leukemia) was > 100 µM. The TGI (COLO 205 colon) was 31 µM, the TGI (DU-145 prostate) was 30.1 µM and the TGI (EKVX NSCLC) was 28.7 µM. For the same compound, the TGI (HCC-2998 colon) was 32.4 µM, the TGI (HCT-116 colon) was 30.2 µM and the TGI (HCT-15 colon) was 33.3 µM. The TGI (HL-60(TB) leukemia) was 78.4 µM, the TGI (HOP-62 NSCLC) was 35 µM and the TGI (HOP-92 NSCLC) was 18.9 µM. The TGI (HS 578T breast) was 35.1 µM, the TGI (HT29 colon) was 42.5 µM and the TGI (IGROV1 ovarian) was 33.6 µM. For the same compound, the TGI (K-562 leukemia) was 44.4 µM, the TGI (KM12 colon) was 35.1 µM and the TGI (LOX IMVI melanoma) was 31.2 µM. For the same compound, the TGI (M14 melanoma) was 39.3 µM, the TGI (MALME-3M melanoma) was 26.2 µM and the TGI (MCF7 breast) was 53.9 µM. It also gave a TGI (MDA-MB-231 breast) of 38.7 µM, a TGI (MDA-MB-435) of 33 µM and a TGI (MDA-N) of 47.8 µM. For the same compound, the TGI (MOLT-4 leukemia) was 32.5 µM, the TGI (NCI-H226 lung) was 32.1 µM and the TGI (NCI-H23 lung) was 29.9 µM. The TGI (NCI-H460 lung) was 29.4 µM, the TGI (NCI-H522 lung) was 26.5 µM and the TGI (NCI/ADR-RES ovarian) was 34 µM. The TGI (OVCAR-4 ovarian) was 29.1 µM, the TGI (OVCAR-5 ovarian) was 30.7 µM and the TGI (OVCAR-8 ovarian) was 38.6 µM. The TGI (PC-3 prostate) was 34.8 µM, the TGI (RPMI-8226 leukemia) was 33.9 µM and the TGI (RXF 393 renal) was 29.2 µM. For the same compound, the TGI (SF-268 CNS) was 31.1 µM, the TGI (SF-295 CNS) was 32.8 µM and the TGI (SK-MEL-2 melanoma) was 30.1 µM. The TGI (SK-MEL-28 melanoma) was 38.6 µM, the TGI (SK-MEL-5 melanoma) was 29.5 µM and the TGI (SK-OV-3 ovarian) was 39.6 µM. The TGI (SN12C renal) was 32.4 µM, the TGI (SNB-19 CNS) was 38.3 µM and the TGI (SNB-75 CNS) was 30 µM. The TGI (SR leukemia) was 34.8 µM, the TGI (T-47D breast) was 29 µM and the TGI (TK-10 renal) was 30 µM. For the same compound, the TGI (U251 CNS) was 53.9 µM, the TGI (UACC-257 melanoma) was 48.7 µM and the TGI (UACC-62 melanoma) was > 100 µM. The TGI (UO-31 renal) was 31.5 µM.

With NC(N)=NC(N)=Nc1cnccn1 the TGI (786-0 renal) was > 100 µM, the TGI (A498 renal) was > 100 µM and the TGI (A549 NSCLC) was > 100 µM. The TGI (ACHN renal) was > 100 µM, the TGI (CAKI-1 renal) was > 100 µM and the TGI (CCRF-CEM leukemia) was > 100 µM. The TGI (COLO 205 colon) was > 100 µM, the TGI (DU-145 prostate) was > 100 µM and the TGI (EKVX NSCLC) was > 100 µM. For the same compound, the TGI (HCC-2998 colon) was > 100 µM, the TGI (HCT-116 colon) was > 100 µM and the TGI (HCT-15 colon) was > 100 µM. The TGI (HL-60(TB) leukemia) was > 100 µM, the TGI (HOP-62 NSCLC) was > 100 µM and the TGI (HOP-92 NSCLC) was > 100 µM. For the same compound, the TGI (HT29 colon) was > 100 µM, the TGI (IGROV1 ovarian) was > 100 µM and the TGI (K-562 leukemia) was > 100 µM. For the same compound, the TGI (KM12 colon) was > 100 µM, the TGI (LOX IMVI melanoma) was > 100 µM and the TGI (M14 melanoma) was > 100 µM. For the same compound, the TGI (MALME-3M melanoma) was > 100 µM, the TGI (MCF7 breast) was > 100 µM and the TGI (MDA-MB-231 breast) was > 100 µM. For the same compound, the TGI (MDA-MB-435) was > 100 µM, the TGI (MDA-N) was > 100 µM and the TGI (MOLT-4 leukemia) was > 100 µM. For the same compound, the TGI (NCI-H226 lung) was > 100 µM, the TGI (NCI-H23 lung) was > 100 µM and the TGI (NCI-H522 lung) was > 100 µM. The TGI (NCI/ADR-RES ovarian) was > 100 µM, the TGI (OVCAR-3 ovarian) was > 100 µM and the TGI (OVCAR-4 ovarian) was > 100 µM. For the same compound, the TGI (OVCAR-8 ovarian) was > 100 µM, the TGI (PC-3 prostate) was > 100 µM and the TGI (RXF 393 renal) was > 100 µM. The TGI (SF-295 CNS) was > 100 µM, the TGI (SF-539 CNS) was > 100 µM and the TGI (SK-MEL-2 melanoma) was > 100 µM. For the same compound, the TGI (SK-MEL-28 melanoma) was > 100 µM, the TGI (SK-MEL-5 melanoma) was > 100 µM and the TGI (SK-OV-3 ovarian) was > 100 µM. The TGI (SN12C renal) was > 100 µM, the TGI (SNB-19 CNS) was > 100 µM and the TGI (SNB-75 CNS) was > 100 µM. The TGI (SW-620 colon) was > 100 µM, the TGI (T-47D breast) was > 100 µM and the TGI (TK-10 renal) was > 100 µM. The TGI (U251 CNS) was > 100 µM, the TGI (UACC-257 melanoma) was > 100 µM and the TGI (UACC-62 melanoma) was > 100 µM. For the same compound, the TGI (UO-31 renal) was > 100 µM.
